Results reported in patent US20250275966A1, “GABAA RECEPTOR MODULATOR SALTS, PARTICLES, AND USES THEREOF” (Engrail Therapeutics, Inc., priority 2022, published 2025).
Values after ≈ are worked out from the molar mass of the structure shown. Structures can show the parent of a compound that is named as a salt.

Legend:
[1] = Pharmacokinetic analysis of Compound 1 and its salts after oral capsule administration (Example 4); type: in vivo, cynomolgus monkeys; conditions: single PO capsule, 30 mg/kg
Experimental: A pharmacokinetic analysis was performed comparing administration of Compound 1 with certain salts of Compound 1 after oral (PO) administration in 3 male cynomolgus monkeys. The subjects received a single PO oral gavage of active pharmaceutical ingredient (API) (e.g., Compound 1 fumarate, Compound 1 sulfate, Compound 1 hydrochloride, Compound 1 phosphate, Compound 1 tosylate, Compound 1 malonate, Compound 1 maleate, or Compound 1 free base) in a capsule at a dose of 30 mg/kg. Following dose administration, the animals were flushed with approximately 10 milliliters of tap water to ensure all API was administered. Animals were observed twice daily and at sample collection time-points for any abnormal clinical and behavioral signs. Body weights were taken prior to dosing and weekly thereafter until study termination. Blood samples (0.5 mL) were collected pre-dose, 15 minutes, 30 minutes, and 1, 2, 4, 6, 8, 10, 12, and 24 hours post-dose. Each blood sample was collected from the monkey's femoral, saphenous or other available vein via direct venipuncture, placed into a polypropylene tube containing K2EDTA as the anticoagulant, and gently inverted several times to mix. The blood samples were kept on wet ice until centrifugation. Blood was centrifuged within 10 minutes of collection. The samples were centrifuged at a temperature of 4° C., at 3,000 g, for 5 minutes. The resulting plasma (˜0.25 mL) was divided into two equal aliquots (125 μL each) into polypropylene tubes, designated as Set A and Set B, after centrifugation. Plasma samples designated for certain metabolites (Set A) were treated with 12.5 μL of 2 M ascorbic acid (plasma: ascorbic acid=[…], v:v) prepared beforehand by combining 0.352 g of ascorbic acid into 1 mL of sterile water in a glass vial and mixing thoroughly. […] Once plasma was prepared, the samples were snap frozen on dry ice. All plasma samples were stored frozen below −70° C. until analyzed.

[2] = Intrinsic dissolution rate and solubility in 0.1 N HCl with 1% Tween 80 (USP <1087>); type: physicochemical; conditions: 0.1 N HCl with 1% Tween 80, 37° C.; for Solubility, time point 15 min / Solubility, time point 30 min / Solubility, time point 45 min / Solubility, time point 60 min / Solubility, time point 75 min / Solubility, time point 90 min / Solubility, time point 105 min / Solubility, time point 120 min: 500 mL, pellet about 75 mg; for Intrinsic Dissolution Rate IDR: paddle 100 rpm, die surface 0.5 cm^2; for Solubility, Cumulative: sum of the 15-120 min time points
Experimental: The intrinsic dissolution rate was determined by forming compacted pellets of approximately 75 mg of API using a compression force of 1200 pounds of force, and each pellet (die surface area: 0.5 cm^2) was immersed into a flat bottom vessel containing 500 mL of medium (aqueous 0.1 N HCl with 1% Tween 80 (polyoxyethylene (20) sorbitan monooleate)), using a Distek 2100A dissolution bath, and Distek Circulator/heater (set to 37° C.), with a paddle speed of 100 rpm. An aliquot of the sample (1 mL) was pulled from dissolution media at 15, 30, 45, 60, 75, 90, 105, and 120 minutes, filtered, and analyzed by HPLC. The slope of the dissolution profile corresponded to an intrinsic dissolution rate of hemi-fumarate salt Form B of 6.2 μg/(min·cm^2) as compared to 8.9 μg/(min·cm^2) for Compound 1 (free base). Determination of intrinsic dissolution rate (IDR) was performed for Compound 1 and seven different salts of Compound 1 according to USP <1087> in 0.1 N hydrochloric acid with 1% Tween 80 (Polyoxyethylene […] sorbitan monooleate). Compacted pellets containing approximately 75 mg API were prepared using a compression force of 1200 pounds of force, and each pellet (die surface area: 0.5 cm^2) was immersed into a flat bottom vessel containing 500 mL of medium, using a Distek 2100A dissolution bath, and Distek Circulator/heater (set to 37° C.), with a paddle speed of 100 rpm. An aliquot of the sample (1 mL) was pulled from dissolution media at 15, 30, 45, 60, 75, 90, 105, and 120 minutes, filtered, and analyzed by HPLC. HPLC for IDR and solid-state stability analyses were conducted with an Agilent 1260 Infinity system equipped with a G1311B Quad pump, […] Autosampler, G1330B auto-sampler thermostat, G1316A Thermostatted Column Compartment with a column switch valve, and […] diode array detector.

[3] = 3 male cynomolgus monkeys, plasma Compound 1
[4] = 3 male cynomolgus monkeys, plasma Compound 1, listed as Free base
[5] = listed as Compound 1 (parent free base)

Structure (SMILES) | Cmax [1, 3] | AUClast [1, 3] | Tmax [1, 3] | Solubility, time point 15 min [2] | Solubility, time point 30 min [2] | Solubility, time point 45 min [2] | Solubility, time point 60 min [2] | Solubility, time point 75 min [2] | Solubility, time point 90 min [2] | Solubility, time point 105 min [2] | Solubility, time point 120 min [2] | Intrinsic Dissolution Rate IDR [2] | Solubility, Cumulative [2] | other results
[2H]C([2H])([2H])C(c1cc2nnc(-c3cc(F)ccc3F)n2nc1OCc1ncnn1C)(C([2H])([2H])[2H])C([2H])([2H])[2H] [Compound 1, 3-(2,5-difluorophenyl)-7-[1,1-di(methyl-d3)ethyl-2,2,2-d3]-6-[(1-methyl-1H-1,2,4-triazol-5-yl)methoxy]-1,2,4-triazolo[4,3-b]pyridazine] | 1550 ng/mL | – | – | – | – | – | – | – | – | – | – | – | – | AUClast [1, 4]: 25463 ng·h/mL; Tmax [1, 4]: 4.0 h; AUClast ([1]; male cynomolgus monkeys): 25463 ng·h/mL; Solubility, time point 15 min [2, 5]: 0.413 µg/mL (≈ 1.01 µM); Solubility, time point 30 min [2, 5]: 0.464 µg/mL (≈ 1.14 µM); Solubility, time point 45 min [2, 5]: 0.641 µg/mL (≈ 1.57 µM); Solubility, time point 60 min [2, 5]: 0.823 µg/mL (≈ 2.01 µM); Solubility, time point 75 min [2, 5]: 0.89 µg/mL (≈ 2.18 µM); Solubility, time point 90 min [2, 5]: 1.026 µg/mL (≈ 2.51 µM); Solubility, time point 105 min [2, 5]: 1.23 µg/mL (≈ 3.01 µM); Solubility, time point 120 min [2, 5]: 1.31 µg/mL (≈ 3.21 µM); Intrinsic Dissolution Rate IDR ([2]; listed as Compound 1 (free base)): 8.9 μg/(min · cm^2); Intrinsic Dissolution Rate IDR [2, 5]: 8.9 μg/(min · cm^2); Solubility, Cumulative [2, 5]: 6.797 µg/mL (≈ 16.6 µM)
[2H]C([2H])([2H])C(c1cc2nnc(-c3cc(F)ccc3F)n2nc1OCc1ncnn1C)(C([2H])([2H])[2H])C([2H])([2H])[2H] [Maleate Salt, 3-(2,5-difluorophenyl)-7-[1,1-di(methyl-d3)ethyl-2,2,2-d3]-6-[(1-methyl-1H-1,2,4-triazol-5-yl)methoxy]-1,2,4-triazolo[4,3-b]pyridazine] | 1388 ng/mL | 20575 ng·h/mL | 12.0 h | 0.245 µg/mL | 0.36 µg/mL | 0.462 µg/mL | 0.567 µg/mL | 0.681 µg/mL | 0.791 µg/mL | 0.941 µg/mL | 1.01 µg/mL | 7.3 μg/(min · cm^2) | 5.057 µg/mL | –
[2H]C([2H])([2H])C(c1cc2nnc(-c3cc(F)ccc3F)n2nc1OCc1ncnn1C)(C([2H])([2H])[2H])C([2H])([2H])[2H] [Malonate Salt, 3-(2,5-difluorophenyl)-7-[1,1-di(methyl-d3)ethyl-2,2,2-d3]-6-[(1-methyl-1H-1,2,4-triazol-5-yl)methoxy]-1,2,4-triazolo[4,3-b]pyridazine] | 2010 ng/mL | 24694 ng·h/mL | 4.7 h | 0.352 µg/mL | 0.454 µg/mL | 0.579 µg/mL | 0.68 µg/mL | 0.757 µg/mL | 0.87 µg/mL | 1.04 µg/mL | 1.05 µg/mL | 6.9 μg/(min · cm^2) | 5.782 µg/mL | –
[2H]C([2H])([2H])C(c1cc2nnc(-c3cc(F)ccc3F)n2nc1OCc1ncnn1C)(C([2H])([2H])[2H])C([2H])([2H])[2H] [Phosphate Salt, 3-(2,5-difluorophenyl)-7-[1,1-di(methyl-d3)ethyl-2,2,2-d3]-6-[(1-methyl-1H-1,2,4-triazol-5-yl)methoxy]-1,2,4-triazolo[4,3-b]pyridazine] | 1096 ng/mL | 18378 ng·h/mL | 5.3 h | 0.358 µg/mL | 0.375 µg/mL | 0.449 µg/mL | 0.543 µg/mL | 0.615 µg/mL | 0.769 µg/mL | 0.912 µg/mL | 0.11 µg/mL | 7.0 μg/(min · cm^2) | 4.131 µg/mL | –
[2H]C([2H])([2H])C(c1cc2nnc(-c3cc(F)ccc3F)n2nc1OCc1ncnn1C)(C([2H])([2H])[2H])C([2H])([2H])[2H] [Sulfate Salt, 3-(2,5-difluorophenyl)-7-[1,1-di(methyl-d3)ethyl-2,2,2-d3]-6-[(1-methyl-1H-1,2,4-triazol-5-yl)methoxy]-1,2,4-triazolo[4,3-b]pyridazine] | 1151 ng/mL | 18231 ng·h/mL | 4.0 h | 0.316 µg/mL | 0.364 µg/mL | 0.453 µg/mL | 0.569 µg/mL | 0.668 µg/mL | 0.772 µg/mL | 0.944 µg/mL | 1.06 µg/mL | 7.1 μg/(min · cm^2) | 5.146 µg/mL | –
[2H]C([2H])([2H])C(c1cc2nnc(-c3cc(F)ccc3F)n2nc1OCc1ncnn1C)(C([2H])([2H])[2H])C([2H])([2H])[2H] [Tosylate Salt, 3-(2,5-difluorophenyl)-7-[1,1-di(methyl-d3)ethyl-2,2,2-d3]-6-[(1-methyl-1H-1,2,4-triazol-5-yl)methoxy]-1,2,4-triazolo[4,3-b]pyridazine] | 1629 ng/mL | 23248 ng·h/mL | 10.7 h | 0.56 µg/mL | 0.638 µg/mL | 0.755 µg/mL | 0.88 µg/mL | 1.02 µg/mL | 1.15 µg/mL | 1.43 µg/mL | 1.39 µg/mL | 8.7 μg/(min · cm^2) | 7.823 µg/mL | –
